We go through one compound from US11680298B2, “Method of identifying risk of cancer and therapeutic options” (Agency for Science, Technology and Research, priority 2016, dated 2023).

One data set concerns MB468 tumourspheres. Kind of data set: Mammosphere (tumoursphere) formation assay, MB468. The format is cell-based. The following applies: MB468 cell line. How it is done:
Mammosphere Formation Assay PDX-derived tumoursphere cells were trypsinized and passed through 40 μm cell strainer to achieve single cell suspensions. 3×10^4 cells were seeded in 6-well ultra-low attachment plates (Corning, N.Y.; CLS3471) in serum-free DMEM/F12 supplemented with N2 and B27 (Gibco, Grand Island, N.Y.), 20 ng/ml epidermal growth factor (MACS, Auburn, Calif.), 20 ng/ml basic fibroblast growth factor (MACS, Auburn, Calif.), 0.2 μM Thiazovivin ([…] Technologies, Vancouver, BC) and penicillin/streptomycin (Gibco, Carlsbad, Calif.). For breast cancer cell lines and MCF10A cell line, 3×10^4 cells were seeded in 6-well ultra-low attachment plates in Mammocult medium (Stem Cell Technologies, Vancouver, BC, Canada), supplemented with fresh hydrocortisone (0.5 μg/ml) and heparin (1:500). Mammospheres were maintained at 37° C. with 5% CO2 and topped up with medium every 3 days. After 7-9 days, mammospheres were stained with INT (2-(4-iodophenyl)-3-(4-nitrophenyl)-5-phenyl-2H-tetrazolium chloride, Sigma-Aldrich) and quantified. Imaging and quantification were done using GelCount apparatus and associated software (Oxford Optronix, Abingdon, UK). […] Cell Proliferation Assay

For the next data set, the system named is S100A7/8/9. Kind of data set: Real-time PCR analysis of S100A7/8/9 gene expression in cells. The format is cell-based, human. The protocol: Total RNA was isolated using TRIzol® reagent (Life Technologies, Carlsbad, Calif.; 15596026) and purified with Direct-zolTM RNA MiniPrep (Zymo Research, Irvine, Calif.; […]). Reverse transcription and quantitative PCR assays were performed using High-Capacity cDNA Reverse Transcription Kit (Applied Biosystems, Carlsbad, Calif.; 4368813) and KAPA SyBr Fast qPCR kit (KAPA Biosystems, Wilmington, Mass.; KK4601). For quantification of mRNA levels, GAPDH level was used as an internal control. All reactions were analysed in an Applied Biosystems PRISM 7500 Fast Real-Time PCR system in 96-well plate format. For RNA extraction of xenograft tumours, snap frozen samples were resuspended in TRIzol® reagent and homogenized with QIAGEN TissueLyzer II as described by the manufacturer, followed by purification with Direct-zolITM RNA MiniPrep.
A general note: In qPCR the cycle at which signal appears reflects the starting amount.

Data set [1] is described as follows: Tolerability during treatment in the PDX mouse model. The following applies: in vivo. The protocol:
Surgical procedures and experiments were conducted in compliance with animal protocols approved by the A*STAR-Biopolis Institutional Animal Care and Use Committee of Singapore (IACUC). 6-8 wk old female NOD/MrkBomTac-Prkdcscid mice were purchased from InVivos (Singapore). For PDX orthotopic xenotransplantation, tissue suspension was first prepared from whole tumour explant from mammary fat pad of immunodeficient mice. Whole tumours were washed in PBS, minced with sterile scalpel and triturated until cells could pass through needle bore. The PDX cell suspension was resuspended in reduced Matrigel (BD Bioscience, Cat No: 356230), and then 10 μl was injected into the mammary fat pad. Autoclips was used for primary wound closure. Mice were observed post-procedure for 1-2 hr, and their body weights and wound healing were monitored weekly. Tumours were measured by vernier caliper twice weekly and the tumour volume was calculated with the following formula: V=W×W×L/2.
For in vivo PDX model, each mouse bore one PDX tumour on one side of the mammary fat pad. After the tumours reach 100 mm^3, the mice were randomized into two groups: Vehicle treated control tumour (n=4) and paclitaxel treated tumour ([…]). […] Following the drug treatments, the tumours were monitored for approximately one month. […]

`C1=C/COCc2cc(ccc2OCCN2CCCC2)Nc2nccc(n2)-c2cccc(c2)COC/1` [pacritinib]: the number of tumourspheres entry with MB468 tumourspheres is recorded as “strong tumoursphere inhibitory effect”. For the same compound, in the data set on S100A7/8/9 (MB468 cells, 24 hr pacritinib treatment), the “expression of S100A7/8/9” value is “reduced the expression of S100A7/8/9 in MB468 cells in a dose-dependent manner”. In addition, in the data set on S100A7/8/9 (across the cell models tested), the S100A7 expression entry is listed as “seemed to be cell specific”; the “expressions of S100A8 and S100A9” value is listed as “consistently reduced”. Besides, the “expression of S100A7/8/9” value with S100A7/8/9 (patient-derived tumoursphere cells, 24 hr, pacritinib 2.5 μM) was “reduced expression of S100A7/8/9”. Moreover, in data set [1], the tolerability result was “tolerated very well”; the “toxicity and body weight loss” value is “no obvious toxicity and body weight loss”.
